Values quoted from earlier work as cited in patent US7655753B2, “Conjugate” (PhotoBiotics Limited, priority 2001, dated 2010).

Tests used:
[1] = test system: Basal cell cancer of skin; conditions: clinical PDT, topical administration
[2] = test system: Barrett's oesophagus cancer; conditions: clinical PDT, systemic administration
[3] = test system: Chest wall recurrence in breast cancer; conditions: clinical PDT
Oral cancer = conditions: clinical PDT, over 5-53 months
Bladder cancer = conditions: clinical PDT
Barrett's mucosal cancer = conditions: clinical PDT

Q: Which complete response [1] does the source give for `NCC(=O)CCC(=O)O` [ALA, 5-aminolaevulanic acid] here?
A: The complete response was 90% complete response.

Q: What about the High-grade dysplasia outcome [2] of the same compound?
A: Its High-grade dysplasia outcome is “eradicated in all patients”.

Q: For `Oc1cccc(-c2c3nc(c(-c4cccc(O)c4)c4ccc([nH]4)c(-c4cccc(O)c4)c4nc(c(-c5cccc(O)c5)c5ccc2[nH]5)CC4)C=C3)c1` [Foscan, meta-tetrahydroxyphenyl chlorin], which “skin photosensitivity (duration)” value (in vivo) is on record?
A: The value was “about 2 weeks”.

Q: Which results are given for Dihematoporphyrin ether?
A: complete response [3]: 20% complete response,; partial response [3]: 45% partial response; complete response (Oral cancer): 87% complete response

Q: For Hematoporphyrin derivative, which “alive after 5 years” value (Bladder cancer) is on record?
A: The value was 30% alive after 5 years.

Q: What about the complete response (Bladder cancer) of the same compound?
A: Its complete response is 74% complete response,.

Q: For porfimer sodium, which “conversion to normal epithelium” value (Barrett's mucosal cancer) is on record?
A: Its value is 75% conversion to.

Q: And the tumour outcome (Barrett's mucosal cancer)?
A: Its tumour outcome is “tumours eliminated”.

Q: What about the “persistence in the body” value (leading to skin photosensitivity) of the same compound?
A: Its value is “weeks”.
